SMILES strings stand for the structures. Where “and” joins values, the source holds several entries; their conditions need not be identical. Identical values can stand only once. Bounds are passed on as bounds.

In the test the target is T1, Met kinase domain (GST fusion protein) (Homo sapiens, UniProt P08581).
T1 construct: Purified GST fusion protein containing the Met kinase domain
T1 sequence (P08581 1078-1345 limits assumed): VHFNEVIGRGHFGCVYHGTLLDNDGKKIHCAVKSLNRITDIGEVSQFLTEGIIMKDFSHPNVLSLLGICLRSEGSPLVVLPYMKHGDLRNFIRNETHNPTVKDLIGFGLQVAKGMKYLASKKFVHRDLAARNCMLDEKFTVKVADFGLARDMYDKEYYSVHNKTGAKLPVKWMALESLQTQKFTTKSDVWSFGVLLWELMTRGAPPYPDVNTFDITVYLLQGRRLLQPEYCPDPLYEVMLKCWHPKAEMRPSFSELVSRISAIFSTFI
Description: Met transphosphorylation assay (ELISA, poly(glu-tyr) substrate).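 Note: Cell-free ELISA with plate-bound poly(Glu:Tyr 4:1) phosphorylated by GST-fused Met kinase domain plus ATP and Mn2+, phosphotyrosine detected by anti-phosphotyrosine antibody with HRP and ABTS read-out.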 The class given is biochemical. The following applies: read-out: Met IC50. Background: An ELISA detects its analyte on a solid surface through an enzyme-linked reagent.
Description: General procedure is as follows: a compound is introduced to cells expressing the test kinase, either naturally or recombinantly, for a selected period of time after which, if the test kinase is a receptor, a ligand known to activate the receptor is added. The cells are lysed and the lysate is transferred to the wells of an ELISA plate previously coated with a specific antibody recognizing the substrate of the enzymatic phosphorylation reaction. Non-substrate components of the cell lysate are washed away and the amount of phosphorylation on the substrate is detected with an antibody specifically recognizing phosphotyrosine compared with control cells that were not contacted with a test compound.
Met Transphosphorylation Assay
This assay is used to measure phosphotyrosine levels on a poly(glutamic acid:tyrosine, 4:1) substrate as a means for identifying agonists/antagonists of met transphosphorylation of the substrate.
PBS, Gibco Catalog # 450-1300EB • 4. 50 mM HEPES • 5. […] Purified GST fusion protein containing the Met kinase domain, SUGEN, Inc. • 7. TBST Buffer. • 8. 10% aqueous (MilliQue H2O) DMSO. • 9. […] 2× Kinase Dilution Buffer: for 100 mL, mix 10 mL 1M HEPESat pH 7.5 with 0.4 mL 5% BSA/PBS, 0.2 mL 0.1 M sodium orthovanadate and 1 mL 5M sodium chloride in 88.4 mL dH2O. • 11. 4× ATP Reaction Mixture: for 10 mL, mix 0.4 mL 1 M manganese chloride and 0.02 mL 0.1 M ATP in 9.56 mL dH2O. • 12. 4× Negative Controls Mixture: for 10 mL, mix 0.4 mL 1 M manganese chloride in 9.6 mL dH2O. • 13. […] 500 mM EDTA. • 15. Antibody Dilution Buffer: for 100 mL, mix 10 mL 5% BSA/PBS, 0.5 mL 5% Carnation® Instant Milk in PBS and 0.1 mL 0.1 M sodium orthovanadate in 88.4 mL TBST. • 16. Rabbit polyclonal antophosphotyrosine antibody, SUGEN, Inc. • 17. Goat anti-rabbit horseradish peroxidase conjugated antibody, Biosource, Inc. • 18. ABTS Solution: for 1 L, mix 19.21 g citric acid, 35.49 g Na2HPO4 and 500 mg ABTS with sufficient dH2O to make 1 L. • 19. ABTS/H2O2: mix 15 mL ABST solution with 2μL H2O2 five minutes before use. • 20. 0.2 M HCl Procedure: • 1. Coat ELISA plates with 2 μg Poly(Glu-Tyr) in 100 μL PBS, hold-overnight at 4° C. • 2. Block plate with 150 μL of 5% BSA/PBS for 60 min. • 3. Wash plate twice with PBS then once with 50 mM Hepes buffer pH 7.4. • 4. Add 50 μl of the diluted kinase to all wells. (Purified kinase is diluted with Kinase Dilution Buffer. Final concentration should be 10 ng/well.) • 5. Add 25 μL of the test compound (in 4% DMSO) or DMSO alone (4% in dH2O) for controls to plate. • 6. Incubate the kinase/compound mixture for 15 minutes. • 7. Add 25 μL of 40 mM MnCl2 to the negative control wells. • 8. Add 25 μL ATP/MnCl2 mixture to the all other wells (except the negative controls). Incubate for 5 min. • 9. Add 25 μL 500 mM EDTA to stop reaction. • 10. Wash plate 3× with TBST. • 11. Add 100 μL rabbit polyclonal anti-Ptyr diluted 1:10,000 in Antibody Dilution Buffer to each well. Incubate, with shaking, at room temperature for one hour. • 12. Wash plate 3× with TBST. • 13. […] Add 100 μL per well and incubate at room temperature, with shaking, for one hour. • 14. Wash plate 1× with PBS. • 15. Add 100 μl of ABTS/H2O2 solution to each well. • 16. If necessary, stop the development reaction with the addition of 100 μl of 0.2M HCl per well. • 17.
For `CC(Oc1cc(-c2ccc(C(=O)N3CCC[C@@H]3CN3CCCC3)cc2)cnc1N)c1ccccc1C(F)(F)F` (stereo partly drawn) [Example I-114, (4-{6-Amino-5-[1-(2-trifluoromethyl-phenyl)-ethoxy]-pyridin-3-yl}-phenyl)-[(2R)-2-pyrrolidin-1-ylmethyl-pyrrolidin-1-yl]-methanone], the IC50 turned out to be 0.33 µM. For `Nc1ncc(-c2ccc(C(=O)N3CCC[C@@H]3CN3CCCC3)cc2)cc1OCc1ccccc1Br` [Example I-115, {4-[6-Amino-5-(2-bromo-benzyloxy)-pyridin-3-yl]-phenyl}-[(2R)-2-pyrrolidin-1-ylmethyl-pyrrolidin-1-yl]-methanone] the value was 1.75 µM. To `Nc1ncc(-c2ccc(C(=O)N3CCC[C@@H]3CN3CCCC3)cc2)cc1OCc1cccc(F)c1C(F)(F)F` [Example I-116, {4-(6-Amino-5-(3-fluoro-2-trifluoromethyl-benzyloxy)-pyridin-3-yl]-phenyl}-[(2R)-2-pyrrolidin-1-ylmethyl-pyrrolidin-1-yl]-methanone] belongs 0.025 µM; to `Nc1ncc(-c2ccc(O)cc2)cc1OCc1c(F)cccc1F` [Example I-118, 4-[6-Amino-5-(2,6-difluoro-benzyloxy)-pyridin-3-yl]-phenyl], 3.79 µM; to `Nc1ncc(-c2cccc3[nH]ccc23)cc1OCc1c(F)cccc1F` [Example I-119, 3-(2,6-Difluoro-benzyloxy)-5-(1H-indol-4-yl)-pyridin-2-ylamine], 5.8 µM. To `Nc1ncc(-c2ccc(C(=O)N3CCC[C@@H]3CN3CCCC3)cc2)cc1OCc1c(F)cccc1F` [Example I-122] belongs 1.21 µM; to `Nc1ncc(-c2ccc(C(=O)N3CCC[C@H]3CN3CCCC3)cc2)cc1OCc1c(F)cccc1F` [Example I-123, {4-[6-Amino-5-(2,6-difluoro-benzyloxy)-pyridin-3-yl]-phenyl}-[(2S)-2-pyrrolidin-1-ylmethyl-pyrrolidin-1-yl]-methanone], 1.36 µM; to `Nc1ncc(-c2ccc(OCC(=O)O)cc2)cc1OCc1c(F)cccc1F` [Example I-125, {4-[6-Amino-5-(2,6-difluoro-benzyloxy)-pyridin-3-yl]-phenoxy}-acetic acid], 14.7 µM. Regarding `Nc1ncc(-c2ccc(OCC(=O)N3CCC[C@@H]3CN3CCCC3)cc2)cc1OCc1c(F)cccc1F` [Example I-126, 2-{4-[6-Amino-5-(2,6-difluoro-benzyloxy)-pyridin-3-yl]-phenoxy}-1-[(2R)-2-pyrrolidin-1-ylmethyl-pyrrolidin-1-yl]-ethanone], the IC50 was 3.58 µM. To `Nc1ncc(-c2ccc(OCC(=O)N3CCC[C@H]3CN3CCCC3)cc2)cc1OCc1c(F)cccc1F` [Example I-127, 2-{4-[6-Amino-5-(2,6-difluoro-benzyloxy)-pyridin-3-yl]-phenoxy}-1-[(2S)-2-pyrrolidin-1-ylmethyl-pyrrolidin-1-yl]-ethanone] belongs 5.43 µM.

For `Nc1ncc(-c2ccc(O)cc2)cc1OCc1c(F)cccc1Cl` [Example I-128, 4-[6-Amino-5-(2-chloro-6-fluoro-benzyloxy)-pyridin-3-yl]-phenol], the concentration for half-maximal inhibition (IC50) was determined as 3.99 µM. `Nc1ncc(-c2ccc(O)cc2)cc1OCc1ccc(F)cc1Cl` [Example I-129, 4-[6-Amino-5-(2-chloro-4-fluoro-benzyloxy)-pyridin-3-yl]-phenol]: the IC50 stood at 19 µM.

With `Nc1ncc(-c2ccc(O)cc2)cc1OCc1ccc(Cl)cc1Cl` [Example I-130, 4-[6-Amino-5-(2,4-dichloro-benzyloxy)-pyridin-3-yl]-phenol], the IC50 is 9 µM and > 20 µM. For `N#Cc1ccccc1COc1cc(-c2ccc(O)cc2)cnc1N` [Example I-131, 2-[2-Amino-5-(4-hydroxy-phenyl)-pyridin-3-yloxymethyl]-benzonitrile] the value was 19 µM; for `Nc1ncc(-c2ccc(O)cc2)cc1OCc1ccccc1C(F)(F)F` [Example I-132, 4-[6-Amino-5-(2-trifluoromethyl-benzyloxy)-pyridin-3-yl]-phenol], 3.67 µM; for `Nc1ncc(-c2ccc(O)cc2)cc1OCc1ccccc1Cl` [Example I-133, 4-[6-Amino-5-(2-chloro-benzyloxy)-pyridin-3-yl]-phenol], 13.8 µM. Regarding `CC(C)(C)c1ccc(COc2cc(-c3ccc(O)cc3)cnc2N)cc1` [Example I-134, 4 [6-Amino-5-(4-teert-butyl-benzyloxy)-pyridin-3-yl]-phenol], the IC50 stood at 4 µM. For `CS(=O)(=O)Nc1ccc(-c2cnc(N)c(OCc3ccccc3C#N)c2)cc1` [Example I-135, N-{4-[6-Amino-5-(2-cyano-benzyloxy)-pyridin-3-yl]-phenyl}-methanesulfonamide] the value was 4.18 µM. For `CS(=O)(=O)Nc1ccc(-c2cnc(N)c(OCc3ccccc3C(N)=O)c2)cc1` [Example I-136, 2-[2-Amino-5-(4-methanesulfonylamino-phenyl)-pyridin-3-yloxymethyl]-benzamide] the value was more than 20 µM; for `CS(=O)(=O)Nc1ccc(-c2cnc(N)c(OCc3ccccc3C(=O)O)c2)cc1` [Example I-137, 2-[2-Amino-5-(4-methanesulfonylamino-phenyl)-pyridin-3-yloxymethyl]-benzoic acid], more than 20 µM; for `CN1CCN(C(=O)c2ccccc2COc2cc(-c3ccc(NS(C)(=O)=O)cc3)cnc2N)CC1` [Example I-138, N-(4-{6-Amino-5-[2-(4-methyl-piperazine-1-carbonyl)-benzyloxy]-pyridin-3-yl}-phenyl)-methanesulfonamide], more than 20 µM. For `CS(=O)(=O)Nc1ccc(-c2cnc(N)c(OCc3ccccc3C(=O)NCCO)c2)cc1` [Example I-139, 2-[2-Amino-5-(4-methanesulfonylamino-phenyl)-pyridin-3-yloxymethyl]-N-(2-hydroxy-ethyl)-benzamide] the value was more than 20 µM. Consider `CC(C)CNC(=O)c1ccccc1COc1cc(-c2ccc(NS(C)(=O)=O)cc2)cnc1N` [Example I-140, 2-[2-Amino-5-(4-methanesulfonylamino-phenyl)-pyridin-3-yloxymethyl]-N-isobutyl-benzamide], for which the IC50 is more than 20 µM.

`CN(C)[C@H]1CCN(C(=O)c2ccc(-c3cnc(N)c(OCc4c(F)cccc4Cl)c3)cc2)C1` [Example I-144, {4-[6-Amino-5-(2-chloro-6-fluoro-benzyloxy)-pyridin-3-yl]-phenyl}-[(3S)-3-dimethylamino-pyrrolidin-1-yl]-methanone]: the IC50 was 1.7 µM.

Consider `Nc1ncc(-c2ccc(C(=O)N3CC[C@H](N)C3)cc2)cc1OCc1c(F)cccc1Cl` [Example I-145, {4-[6-Amino-5-(2-chloro-6-fluoro-benzyloxy)-pyridin-3-yl]-phenyl}-[(3S)-3-amino-pyrrolidin-1-yl]-methanone], for which the IC50 amounted to 0.63 µM. To `CN1CCN(C(=O)c2ccc(-c3cnc(N)c(OCc4c(F)cccc4Cl)c3)cc2)CC1` [Example I-146, {4-[6-Amino-5-(2-chloro-6-fluoro-benzyloxy)-pyridin-3-yl]-phenyl}-(4-methyl-piperazin-1-yl)-methanone] belongs 1.94 µM; to `CC(=O)N1CCN(C(=O)c2ccc(-c3cnc(N)c(OCc4c(F)cccc4Cl)c3)cc2)CC1` [Example I-147, 1-(4-{4-(6-Amino-5-(2-chloro-6-fluoro-benzyloxy)-pyridin-3-yl]-benzoyl}-piperazin-1-yl)-ethanone], 1.45 µM; to `Nc1ncc(-c2ccc(C(=O)NCCN3CCOCC3)cc2)cc1OCc1c(F)cccc1Cl` [Example I-148, 4-[6-Amino-5-(2-chloro-6-fluoro-benzyloxy)-pyridin-3-yl]-N-(2-morpholin-4-yl-ethyl)-benzamide], 6.4 µM. In the case of `Nc1ncc(-c2ccc(C(=O)NCCCN3CCOCC3)cc2)cc1OCc1c(F)cccc1Cl` [Example I-149, 4-[6-Amino-5-(2-chloro-6-fluoro-benzyloxy)-pyridin-3-yl]-N-(3-morpholin-4-yl-propyl)-benzamide], the IC50 stood at 5.6 µM. Turning to `CN(C)[C@H]1CCN(C(=O)c2ccc(-c3cnc(N)c(OCc4ccccc4Cl)c3)cc2)C1` [Example I-153, {4-[6-Amino-5-(2-chloro-benzyloxy)-pyridin-3-yl]-phenyl}-[(3S)-3-dimethylamino-pyrrolidin-1-yl]-methanone], the IC50 came out at 12.7 µM. In the case of `Nc1ncc(-c2ccc(C(=O)N3CC[C@H](N)C3)cc2)cc1OCc1ccccc1Cl` [Example I-154, {4-[6-Amino-5-(2-chloro-benzyloxy)-pyridin-3-yl]-phenyl}-[(3S)-3-amino-pyrrolidin-1-yl]-methanone], the IC50 came to 1.44 µM. With `CN1CCN(C(=O)c2ccc(-c3cnc(N)c(OCc4ccccc4Cl)c3)cc2)CC1` [Example I-156, {4-[6-Amino-5-(2-chloro-benzyloxy)-pyridin-3-yl]-phenyl}-(4-methyl-piperazin-1-yl)-methanone], the half-inhibitory concentration (IC50) stood at 2.1 µM.

As for `CC(=O)N1CCN(C(=O)c2ccc(-c3cnc(N)c(OCc4ccccc4Cl)c3)cc2)CC1` [Example I-157, 1-(4-{4-[6-Amino-5-(2-chloro-benzyloxy)-pyridin-3-yl]-benzoyl}-piperazin-1-yl)-ethanone], the IC50 was 3.8 µM. For `Nc1ncc(-c2ccc(C(=O)NCCN3CCOCC3)cc2)cc1OCc1ccccc1Cl` [Example I-158, 4-[6-Amino-5-(2-chloro-benzyloxy)-pyridin-3-yl]-N-(2-morpholin-4-yl-ethyl)-benzamide] the value was 8.9 µM; for `Nc1ncc(-c2ccc(C(=O)NCCCN3CCOCC3)cc2)cc1OCc1ccccc1Cl` [Example I-159, 4-[6-Amino-5-(2-chloro-benzyloxy)-pyridin-3-yl]-N-(3-morpholin-4-yl-propyl)-benzamide], 4.5 µM; for `CN(C)[C@H]1CCN(C(=O)c2ccc(-c3cnc(N)c(OCc4ccccc4C#N)c3)cc2)C1` [Example I-163, 2-{2-Amino-5-[4-((3S)-3-dimethylamino-pyrrolidine-1-carbonyl)-phenyl]-pyridin-3-yloxymethyl}-benzonitrile], more than 20 µM. In the case of `N#Cc1ccccc1COc1cc(-c2ccc(C(=O)N3CC[C@H](N)C3)cc2)cnc1N` [Example I-164], the IC50 stood at 2.05 µM.

For orientation: IC50 means the concentration that gives 50% inhibition.
